In ChEMBL document CHEMBL3045558, “Synthesis and primary evaluation of quinoxalinone derivatives as potent modulators of multidrug resistance” (Med Chem Res, 2009):

Key:
[1] = Cytotoxicity against Homo sapiens (human) K562/A02 cells after 24 to 72 hr by MTT assay; format: cell-based
[2] = target: ATP-dependent translocase ABCB1 (Homo sapiens, UniProt P08183); test: Inhibition of p-glycoprotein in Homo sapiens (human) K562/A02 cells assessed as reduction of adriamycin IC50 for cytotoxic effect at IC10 treated 12 hr before adriamycin challenge measured after 24 to 72 hr by MTT assay; format: cell-based
ATP-dependent translocase ABCB1, sequence (P08183 whole entry): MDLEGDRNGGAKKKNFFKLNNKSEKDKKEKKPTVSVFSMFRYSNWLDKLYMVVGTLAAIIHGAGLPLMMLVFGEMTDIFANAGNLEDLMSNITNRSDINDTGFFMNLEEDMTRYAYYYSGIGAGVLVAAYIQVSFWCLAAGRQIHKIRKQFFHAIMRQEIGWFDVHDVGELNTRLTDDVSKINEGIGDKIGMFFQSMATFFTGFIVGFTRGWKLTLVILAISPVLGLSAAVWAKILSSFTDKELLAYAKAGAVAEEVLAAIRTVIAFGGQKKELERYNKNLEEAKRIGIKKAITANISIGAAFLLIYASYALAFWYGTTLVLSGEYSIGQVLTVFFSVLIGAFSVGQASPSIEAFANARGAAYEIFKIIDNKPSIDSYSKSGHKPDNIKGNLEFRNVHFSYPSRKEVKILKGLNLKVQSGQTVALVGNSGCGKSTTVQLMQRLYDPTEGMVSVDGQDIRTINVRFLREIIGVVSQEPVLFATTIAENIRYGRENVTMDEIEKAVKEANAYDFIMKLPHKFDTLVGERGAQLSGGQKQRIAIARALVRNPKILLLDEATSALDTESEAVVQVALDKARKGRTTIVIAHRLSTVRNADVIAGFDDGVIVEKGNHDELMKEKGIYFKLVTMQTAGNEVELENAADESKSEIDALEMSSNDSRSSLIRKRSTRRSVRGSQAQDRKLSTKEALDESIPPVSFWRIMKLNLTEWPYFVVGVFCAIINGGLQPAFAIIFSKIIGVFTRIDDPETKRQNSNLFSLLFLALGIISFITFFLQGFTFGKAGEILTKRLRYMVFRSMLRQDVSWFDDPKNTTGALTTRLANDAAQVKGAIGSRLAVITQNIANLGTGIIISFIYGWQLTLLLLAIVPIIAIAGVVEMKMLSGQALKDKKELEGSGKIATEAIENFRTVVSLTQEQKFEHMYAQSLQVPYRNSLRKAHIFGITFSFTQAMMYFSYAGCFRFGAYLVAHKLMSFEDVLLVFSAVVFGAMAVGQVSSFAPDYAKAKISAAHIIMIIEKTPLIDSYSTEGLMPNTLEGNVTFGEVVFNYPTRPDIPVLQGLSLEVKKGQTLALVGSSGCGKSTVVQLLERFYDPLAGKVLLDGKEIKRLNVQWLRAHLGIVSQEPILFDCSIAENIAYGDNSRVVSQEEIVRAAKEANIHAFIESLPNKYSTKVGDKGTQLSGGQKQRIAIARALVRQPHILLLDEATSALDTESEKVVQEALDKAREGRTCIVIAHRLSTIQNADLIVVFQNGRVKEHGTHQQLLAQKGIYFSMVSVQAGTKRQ

K562 = test: Ratio of compound IC50 to adriamycin IC50 for Homo sapiens (human) K562 cells after 24 to 72 hr by MTT assay; format: functional

| SMILES | IC10 [1] | fold change (FC) [2] | Ratio IC50 (K562) |
| --- | --- | --- | --- |
| COC(=O)[C@H](Cc1ccccc1)NC(=O)Cn1c(=O)c(C)nc2cc(F)c(F)cc21 | 2.41 µM | 1.05 | 1.15 |
| Cc1nc2ccccc2n(CC(=O)Nc2ccc(F)c(F)c2)c1=O | 2.57 µM | 5.3 | 1.07 |
| COc1cc2nc(C)c(=O)n(CC(=O)Nc3ccccc3)c2cc1OC | 2.84 µM | 4.59 | 1.15 |
| Cc1nc2ccccc2n(CC(=O)Nc2ccc(F)c(Cl)c2)c1=O | 2.91 µM | 1.83 | 1 |
| Cc1nc2ccccc2n(CC(=O)Nc2ccccc2)c1=O | 34.1 µM | 2.45 | 1.07 |
| COc1ccc(NC(=O)Cn2c(=O)c(C)nc3ccccc32)cc1OC | 1.42 µM | 3.75 | 1.15 |
| COC(=O)[C@H](Cc1ccccc1)NC(=O)Cn1c(=O)c(C)nc2cc(OC)c(OC)cc21 | 11.38 µM | 1.82 | 1 |
| COC(=O)[C@H](Cc1ccccc1)NC(=O)Cn1c(=O)c(C)nc2ccccc21 | 13.19 µM | 2.01 | 1.25 |
| Cc1ccccc1NC(=O)Cn1c(=O)c(C)nc2ccccc21 | 1.85 µM | 4.01 | 1.15 |
| Cc1ccc(NC(=O)Cn2c(=O)c(C)nc3ccccc32)cc1 | 1.63 µM | 3.55 | 1 |
| Cc1nc2ccccc2n(CC(=O)Nc2ccc(Br)cc2)c1=O | 2.7 µM | 1.24 | 0.94 |
| CCOC(=O)CNC(=O)Cn1c(=O)c(C)nc2ccccc21 | 16.5 µM | 2.37 | 1.07 |
| COC(=O)[C@@H]1C[C@@H](O)CN1C(=O)Cn1c(=O)c(C)nc2ccccc21 | 2.89 µM | 4.82 | 1.15 |
| Cc1nc2cc(F)c(F)cc2n(CC(=O)Nc2ccccc2)c1=O | 1.52 µM | 2.41 | 1 |
| CCOC(=O)CC[C@H](NC(=O)Cn1c(=O)c(C)nc2ccccc21)C(=O)OCC | 2.48 µM | 4.13 | 1.15 |
| Cc1nc2ccccc2n(CC(=O)Nc2ccc(Cl)c(Cl)c2)c1=O | 0.14 µM | 1.62 | 1.07 |
| CCOC(=O)Cn1c(=O)c(C)nc2ccccc21 | 4.06 µM | 1.5 | 1 |
